Patent EP1200406B1, “CYCLIC AMIDES AND IMIDES HAVING SELECTIVE ANTAGONIST ACTIVITY AT ALPHA-1D ADRENERGIC RECEPTOR” (RECORDATI INDUSTRIA CHIMICA E FARMACEUTICA S.p.a., priority 1999, dated 2001)

biological target: T1, human recombinant α1d adrenoceptor (Homo sapiens, UniProt P25100); test: Radioligand binding ([3H]prazosin) on membranes of CHO cells expressing cloned α1d adrenoceptor; details: human cloned receptor, CHO cell membranes, 0.2 nM [3H]prazosin; read-out: Affinity (Ki) α1d
T1 construct: expressed in transfected cells; host or cells: CHO cells (membranes)
T1 sequence (P25100 1-572): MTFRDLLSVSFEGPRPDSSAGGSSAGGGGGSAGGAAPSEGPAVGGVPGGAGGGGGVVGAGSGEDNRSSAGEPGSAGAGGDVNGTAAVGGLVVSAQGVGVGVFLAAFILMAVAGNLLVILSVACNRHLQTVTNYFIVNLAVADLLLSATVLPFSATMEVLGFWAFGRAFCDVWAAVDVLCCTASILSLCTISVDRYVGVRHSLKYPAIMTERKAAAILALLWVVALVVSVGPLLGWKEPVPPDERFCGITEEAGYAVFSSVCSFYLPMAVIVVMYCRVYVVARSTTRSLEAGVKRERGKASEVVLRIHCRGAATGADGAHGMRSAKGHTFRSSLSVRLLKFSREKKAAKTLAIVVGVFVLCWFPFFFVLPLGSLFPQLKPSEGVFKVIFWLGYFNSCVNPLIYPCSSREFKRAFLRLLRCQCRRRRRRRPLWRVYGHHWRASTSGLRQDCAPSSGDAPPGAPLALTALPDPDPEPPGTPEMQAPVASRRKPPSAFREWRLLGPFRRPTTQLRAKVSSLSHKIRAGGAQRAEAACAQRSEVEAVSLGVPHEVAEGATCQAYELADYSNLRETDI
Protocol: The determination of affinity for cloned subtypes of human α1 adrenergic receptors was performed in membranes from CHO cells (chinese hamster ovary cells) transfected by electroporation with DNA expressing the genes encoding each α1-adrenoceptor subtype, namely α1a, α1b and α1d.. Cloning and stable expression of the human α1-adrenoceptor gene were performed as previously described (Testa et al., Pharmacol. Comm. 6, 79-86 (1995)). CHO cell membranes were incubated in […] Tris pH 7.4 with 0.2 nM [^3H]prazosin, in a final volume of 1.02 ml for 30 minutes at 25°C, in the absence or presence of competing drugs (1 pM-10 µM). Non-specific binding was determined in the presence of 10 µM phentolamine. Incubation was stopped by addition of ice-cold Tris buffer and rapid filtration through 0.2% polyethyleneimine pretreated Schleicher & Schuell GF52 filters. […] The HeLa cells were grown as monolayers in Dulbecco's modified Eagle's medium (DMEM), supplemented with 10% foetal calf serum and gentamicin (100 µg/ml), 5% CO2, at 37°C. The cells were detached from the growth flask at 95% confluence by a cell scraper and were lysed in ice-cold 5 mM Tris and 5-mM EDTA buffer (pH 7.4). The homogenates were centrifuged at 40000 x g x 20 minutes and the membranes were re-suspended in a small volume of ice-cold 5 mM Tris and 5-mM EDTA buffer (pH 7.4) and immediately frozen and stored at -70°C until use. On the experiment day, the cell membranes were re-suspended in a buffer containing 50 mM Tris (pH 7.4), 2.5 mM MgCl2, 10 µM pargyline (Fargin et al., Nature 335, 358-360 (1988)). […] The incubation was stopped by addition of ice-cold Tris buffer and rapid filtration through 0.2%-polyethyleneimine-pretreated Schleicher & Schuell filters. The inhibition of specific binding of the radioligands by the drugs was analysed to estimate the IC50 value by using the non-linear curve-fitting programme Allfit (De Lean et al., Am. J. Physiol. 235, E97-E102 (1978)). The IC50 value was converted to an affinity constant (Ki) by the equation of Cheng & Prusoff (Biochem. Pharmacol. 22, 3099-3108 (1973)). Data were expressed as mean of Ki.

Ki [nM]	SMILES
0.18	O=C1CC2(CCCC2)CC(=O)N1CCN1CCN(c2cc(F)ccc2Cl)CC1 [Example 9, 8-{2-[4-(2-Chloro-5-fluorophenyl)-1-piperazinyl]-ethyl}-8-azaspiro[4.5]decane-7,9-dione]
2.38	Cc1ccc(F)c(N2CCN(CCN3C(=O)CC4(CCCC4)CC3=O)CC2)c1 [Example 4, 8-{2-[4-(2-Fluoro-5-methylphenyl)-1-piperazinyl]-ethyl}-8-azaspiro[4.5]decane-7,9-dione]
2.65	O=C1CC2(CCC2)CC(=O)N1CCN1CCN(c2cc(Cl)ccc2Cl)CC1 [Example 15, 7-{2-[4-(2,5-Dichlorophenyl)-1-piperazinyl]-ethyl}-7-azaspiro[3.5]nonane-6,8-dione]
10.1	Cc1ccc(C)c(N2CCN(CCN3C(=O)CC4(CCCC4)CC3=O)CC2)c1 [Example 5, 8-{2-[4-(2,5-Dimethylphenyl)-1-piperazinyl]-ethyl}-8-azaspiro[4.5]decane-7,9-dione]
0.41	CC(CN1CCN(c2cc(Cl)ccc2Cl)CC1)N1C(=O)CC2(CCCC2)CC1=O (centres unmarked) [Example 16, 8-{2-[4-(2,5-Dichlorophenyl)-1-piperazinyl]-1-methylethyl}-8-azaspiro[4.5]decane-7,9-dione]
3.11	O=C1CC2(CCCC2)C(=O)N1CCN1CCN(c2cc(Cl)ccc2Cl)CC1 [Example 14, 2-{2-[4-(2,5-Dichlorophenyl)-1-piperazinyl]-ethyl}-2-azaspiro[4.4]nonane-1,3-dione]
0.2	N#Cc1ccc(Cl)cc1N1CCN(CCN2C(=O)CC3(CCCC3)CC2=O)CC1 [Example 8, 8-{2-[4-(5-Chloro-2-cyanophenyl)-1-piperazinyl]-ethyl}-8-azaspiro[4.5]decane-7,9-dione]
15.3	O=C1CC2(CCCC2)CC(=O)N1CCN1CCN(c2cc(I)ccc2Cl)CC1 [Example 10, 8-{2-[4-(2-Chloro-5-iodophenyl)-1-piperazinyl]-ethyl}-8-azaspiro[4.5]decane-7,9-dione]
2.21	O=C1CC2(CCCCC2)CC(=O)N1CCN1CCN(c2cc(Cl)ccc2Cl)CC1 [Example 11, 3-{2-[4-(2,5-Dichlorophenyl)-1-piperazinyl]-ethyl}-3-azaspiro[5.5]undecane-2,4-dione]

Continued, compound first:

SMILES	Ki [nM]
O=C1CC2(CCCC2)CC(=O)N1CCN1CCN(c2cc(Br)ccc2Br)CC1 [Example 7, 8-{2-[4-(2,5-Dibromophenyl)-1-piperazinyl]-ethyl}-8-azaspiro[4.5]decane-7,9-dione]	3.72
CCC1(C)CC(=O)N(CCN2CCN(c3cc(Cl)ccc3Cl)CC2)C(=O)C1 [Example 13, 1-{2-[4-(2,5-Dichlorophenyl)-1-piperazinyl]-ethyl}-4-ethyl-4-methylpiperidinyl-2,6-dione]	1.23
O=C1CC2(CCCC2)CCN1CCN1CCN(c2cc(F)c(F)cc2F)CC1 [Example 24, 8-{2-[4-(2,4,5-Trifluorophenyl)-1-piperazinyl]-ethyl}-8-azaspiro[4.5]decane-7-one]	0.31
O=C1CC2(CCCC2)CC(=O)N1CCN1CCC(c2cc(Cl)ccc2Cl)CC1 [Example 17, 8-{2-[4-(2,5-Dichlorophenyl)-1-piperidinyl]-ethyl}-8-azaspiro[4.5]decane-7,9-dione]	1.5
CN(CCN1C(=O)CC2(CCCC2)CC1=O)CCN(C)c1cc(Cl)ccc1Cl [Example 18, N-(2,5-Dichlorophenyl)-N'-{2-(7,9-dioxo-8-azaspiro[4.5]decane-8-yl)-ethyl}-N,N'-dimethyl-1,2-diaminoethane]	16.4
O=C1CC2(CCCC2)CC(=O)N1CCN1CCN(c2cc(C(F)(F)F)ccc2F)CC1 [Example 6, 8-{2-[4-(2-Fluoro-5-trifluoromethylphenyl)-1-piperazinyl]-ethyl}-8-azaspiro[4.5]decane-7,9-dione]	7.56

same assay, conditions: read-out: Affinity (Ki) α1d

SMILES	Ki [nM]
O=C1CCCC(=O)N1CCN1CCN(c2cc(Cl)ccc2Cl)CC1 [Example 2, 1-{2-[4-(2,5-Dichlorophenyl)-1-piperazinyl]-ethyl}-piperidinyl-2,6-dione]	3.25
O=C1CC2(C=CN1CCN1CCN(c3cc(Cl)ccc3Cl)CC1)CCCC2 [Example 20, 8-{2-[4-(2,5-Dichlorophenyl)-1-piperazinyl]-ethyl}-8-azaspiro[4.5]dec-9,10-en-7-one]	1.43
